# According to ChEMBL document CHEMBL1201862, “PubChem BioAssay data set” (2004):
# Calls of active or inactive are those of the source.
# Assays:
# [1] = biological target: T1, Replicative DNA helicase DnaB (Mycobacterium tuberculosis, UniProt P9WMR3); experiment: DnaB intein splicing inhibitors, dose response, biochemical, cell-free fluorescence (AID 449749); format: functional
# T1 sequence (P9WMR3 whole entry): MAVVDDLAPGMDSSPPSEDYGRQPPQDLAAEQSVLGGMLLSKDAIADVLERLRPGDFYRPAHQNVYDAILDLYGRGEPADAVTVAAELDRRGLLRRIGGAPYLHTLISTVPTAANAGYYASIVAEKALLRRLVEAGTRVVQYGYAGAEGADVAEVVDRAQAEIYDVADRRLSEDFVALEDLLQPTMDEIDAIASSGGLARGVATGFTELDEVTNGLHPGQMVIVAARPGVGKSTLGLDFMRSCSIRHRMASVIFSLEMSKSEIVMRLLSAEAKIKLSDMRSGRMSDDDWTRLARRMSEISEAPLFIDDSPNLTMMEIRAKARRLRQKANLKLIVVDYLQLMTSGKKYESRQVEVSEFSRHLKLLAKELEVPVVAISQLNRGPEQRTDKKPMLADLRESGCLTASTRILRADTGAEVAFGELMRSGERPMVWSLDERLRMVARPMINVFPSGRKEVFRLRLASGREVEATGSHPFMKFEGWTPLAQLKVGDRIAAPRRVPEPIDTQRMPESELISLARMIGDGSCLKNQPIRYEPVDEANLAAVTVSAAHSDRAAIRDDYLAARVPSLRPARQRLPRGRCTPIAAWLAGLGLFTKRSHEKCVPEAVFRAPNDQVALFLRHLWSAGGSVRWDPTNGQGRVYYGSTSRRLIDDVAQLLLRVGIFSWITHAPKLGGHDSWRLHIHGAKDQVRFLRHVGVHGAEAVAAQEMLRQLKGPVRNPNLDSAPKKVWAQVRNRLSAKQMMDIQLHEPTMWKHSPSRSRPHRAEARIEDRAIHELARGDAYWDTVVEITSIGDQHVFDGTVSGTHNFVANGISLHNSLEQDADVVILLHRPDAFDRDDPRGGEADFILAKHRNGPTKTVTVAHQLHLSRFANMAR
# Caspase-6 = biological target: T2, Caspase-6 (Homo sapiens, UniProt P55212); experiment: inhibition of CASP6 peptide cleavage – biochemical, VEID-R110 fluorescence, cherry-pick, dose response (AID 720632)
# T2 sequence (P55212 whole entry): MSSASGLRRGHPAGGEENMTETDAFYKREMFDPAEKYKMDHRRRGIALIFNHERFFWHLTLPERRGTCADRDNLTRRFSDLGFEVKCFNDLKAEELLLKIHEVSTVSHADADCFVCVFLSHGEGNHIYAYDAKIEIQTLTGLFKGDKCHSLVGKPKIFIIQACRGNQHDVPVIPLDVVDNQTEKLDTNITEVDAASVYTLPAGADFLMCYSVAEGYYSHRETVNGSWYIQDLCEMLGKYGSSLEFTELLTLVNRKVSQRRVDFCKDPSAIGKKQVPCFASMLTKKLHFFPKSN
# Protein S100-A4 = Protein S100-A4 (Homo sapiens, UniProt P26447); experiment: human S100A4 peptide interaction inhibition curves – biochemical, fluorescence polarization, cherry-picked hits, dose response (AID 687001); format: functional
# Protein RecA = biological target: T3, Protein RecA (Mycobacterium tuberculosis, UniProt P9WHJ3); experiment: Fluorescence Cell-Free Homogeneous Dose Retest to Identify Inhibitors of RecA-Intein Splicing Activity. [Related pubchem assays (depositor defined):AID2097, AID2223, AID489010, AID492950]; format: functional
# T3 sequence (P9WHJ3 whole entry): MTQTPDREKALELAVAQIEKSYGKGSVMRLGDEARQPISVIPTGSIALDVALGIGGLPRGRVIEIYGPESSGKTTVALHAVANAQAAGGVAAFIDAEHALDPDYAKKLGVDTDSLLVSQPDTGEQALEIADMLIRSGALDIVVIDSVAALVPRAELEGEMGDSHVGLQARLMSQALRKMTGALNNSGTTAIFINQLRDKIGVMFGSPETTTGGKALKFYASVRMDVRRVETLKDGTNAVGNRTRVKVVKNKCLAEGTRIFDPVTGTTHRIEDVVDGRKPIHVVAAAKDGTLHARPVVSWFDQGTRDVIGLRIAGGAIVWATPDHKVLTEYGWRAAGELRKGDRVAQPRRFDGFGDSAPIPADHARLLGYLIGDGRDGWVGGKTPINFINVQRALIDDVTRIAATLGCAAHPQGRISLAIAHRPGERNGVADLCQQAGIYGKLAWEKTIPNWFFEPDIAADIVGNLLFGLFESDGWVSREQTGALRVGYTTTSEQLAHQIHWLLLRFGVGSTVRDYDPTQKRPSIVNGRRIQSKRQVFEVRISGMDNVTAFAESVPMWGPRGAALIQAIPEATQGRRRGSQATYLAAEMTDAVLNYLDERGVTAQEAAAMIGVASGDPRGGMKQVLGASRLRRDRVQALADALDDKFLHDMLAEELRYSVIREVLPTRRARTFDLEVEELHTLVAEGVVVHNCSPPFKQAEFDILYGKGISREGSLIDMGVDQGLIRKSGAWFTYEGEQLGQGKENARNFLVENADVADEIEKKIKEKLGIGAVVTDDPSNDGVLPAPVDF
# Vero = experiment: viability of Vero cells under compound – cytotoxicity control for flavivirus capping enzyme inhibitors (AID 588742); format: functional; details: Chlorocebus sabaeus
# [2] = biological target: T4, Heat shock factor protein 1 (Mus musculus, UniProt P38532); experiment: decrease of HSF1-responsive luciferase luminescence – cell-based, NIH3T3, dose retest, confirmation (AID 2382); format: functional;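 further: NIH3T3 fibroblasts with HSF1-driven luciferase reporter stressed by proteasome inhibitor MG132; luminescence from HSF1-driven luciferase expression after 8 hours of MG132 stress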
# T4 sequence (P38532 whole entry): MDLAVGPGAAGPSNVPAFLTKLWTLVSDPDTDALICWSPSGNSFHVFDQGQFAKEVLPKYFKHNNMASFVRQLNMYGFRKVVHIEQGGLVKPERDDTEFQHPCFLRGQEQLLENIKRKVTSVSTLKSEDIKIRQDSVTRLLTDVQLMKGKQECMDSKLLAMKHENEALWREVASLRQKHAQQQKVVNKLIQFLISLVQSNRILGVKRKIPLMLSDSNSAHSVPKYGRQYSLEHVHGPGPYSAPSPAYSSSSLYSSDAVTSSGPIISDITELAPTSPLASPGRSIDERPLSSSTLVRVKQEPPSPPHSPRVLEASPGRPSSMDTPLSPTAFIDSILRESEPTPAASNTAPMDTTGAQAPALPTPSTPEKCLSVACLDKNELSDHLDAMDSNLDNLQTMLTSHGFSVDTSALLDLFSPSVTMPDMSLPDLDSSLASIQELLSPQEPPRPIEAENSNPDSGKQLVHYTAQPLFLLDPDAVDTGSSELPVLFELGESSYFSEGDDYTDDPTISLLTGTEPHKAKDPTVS
# [3] = biological target: T5, Tyrosyl-DNA phosphodiesterase 2 (Homo sapiens, UniProt O95551); experiment: potency against TDP2 phosphodiesterase activity – biochemical, epi absorbance, IC50, dose response (AID 743297)
# T5 sequence (O95551 whole entry): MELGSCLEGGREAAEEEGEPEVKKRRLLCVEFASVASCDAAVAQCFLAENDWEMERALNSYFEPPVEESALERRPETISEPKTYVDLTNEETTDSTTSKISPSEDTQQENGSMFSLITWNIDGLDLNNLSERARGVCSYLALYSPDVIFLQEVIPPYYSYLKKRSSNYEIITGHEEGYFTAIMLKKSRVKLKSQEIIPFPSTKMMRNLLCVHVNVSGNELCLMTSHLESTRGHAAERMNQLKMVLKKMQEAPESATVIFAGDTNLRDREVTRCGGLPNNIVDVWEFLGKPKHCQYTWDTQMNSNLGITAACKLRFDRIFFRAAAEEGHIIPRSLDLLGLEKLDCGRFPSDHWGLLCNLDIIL
# Genome polyprotein = Genome polyprotein (dengue virus type 2, UniProt P29990); experiment: flavivirus cap methylation enzyme inhibition – biochemical, confirmation dose response, primary screen (AID 588689); format: functional
# INS1 = experiment: INS-1E survival protection against cytokine death – cell-based, luminescence, retest, dose response (AID 449756); format: functional; details: Rattus norvegicus;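 further: cell death triggered by IL-1 beta plus TNF-alpha plus IFN-gamma mixture; protective hits raise ATP signal compared with cytokine alone wells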
# HeLa = experiment: viability loss in HeLa cells – cell-based, 24 h, cherry-picked samples, cytotoxicity control, dose response (AID 504726); format: functional; details: Homo sapiens;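 further: potency for cytotoxicity as loss of luminescence signal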
# [4] = biological target: T6, Small ubiquitin-related modifier 1 (Homo sapiens, UniProt P63165); experiment: SUMO1 protein-protein binding blockers, potency – biochemical, FRET, dose response (AID 624383); format: functional; details: read-out: IC50_Mean
# [5] = biological target: T7, RNA-binding protein pos-1 (Caenorhabditis elegans, UniProt G5EF15); experiment: disruptors of C. elegans POS-1 RNA interaction – biochemical, fluorescence polarization, dose response (AID 1964);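 further: purified POS-1 fused to maltose binding protein made in E. coli; potency of compounds blocking POS-1 binding to fluorescent RNA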
# T7 sequence (G5EF15 whole entry): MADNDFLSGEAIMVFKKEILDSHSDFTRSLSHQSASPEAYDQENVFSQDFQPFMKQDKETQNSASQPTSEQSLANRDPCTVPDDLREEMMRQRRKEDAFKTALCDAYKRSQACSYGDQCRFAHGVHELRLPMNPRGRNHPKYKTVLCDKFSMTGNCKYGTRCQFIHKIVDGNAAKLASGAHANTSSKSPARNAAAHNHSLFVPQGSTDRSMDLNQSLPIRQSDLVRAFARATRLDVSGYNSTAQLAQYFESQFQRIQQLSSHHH
# [6] = biological target: T8, Zinc finger protein mex-5 (Caenorhabditis elegans, UniProt Q9XUB2); experiment: potency of MEX-5 RNA-binding blockers – biochemical, C. elegans, fluorescence polarization, dose response (AID 1960)
# T8 sequence (Q9XUB2 whole entry): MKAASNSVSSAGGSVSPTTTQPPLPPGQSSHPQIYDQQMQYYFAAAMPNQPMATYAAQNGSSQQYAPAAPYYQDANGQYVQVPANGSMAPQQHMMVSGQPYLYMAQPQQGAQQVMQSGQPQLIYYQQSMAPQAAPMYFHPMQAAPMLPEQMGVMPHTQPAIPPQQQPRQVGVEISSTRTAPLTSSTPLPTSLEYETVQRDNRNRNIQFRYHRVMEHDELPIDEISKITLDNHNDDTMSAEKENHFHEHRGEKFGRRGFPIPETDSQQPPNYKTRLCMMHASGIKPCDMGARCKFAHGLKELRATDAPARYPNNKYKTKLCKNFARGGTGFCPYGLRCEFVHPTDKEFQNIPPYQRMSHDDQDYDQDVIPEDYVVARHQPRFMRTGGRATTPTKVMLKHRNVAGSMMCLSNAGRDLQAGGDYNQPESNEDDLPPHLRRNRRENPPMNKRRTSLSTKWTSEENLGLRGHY
# [7] = biological target: T6, Small ubiquitin-related modifier 1; experiment: SUMO1 protein interaction blockers, potency – biochemical, fluorescence polarization, uHTS hits, dose response (AID 624382); format: functional; details: read-out: IC50_Mean
# ORF 73 = ORF 73 (Human herpesvirus 8, UniProt O40947); experiment: KSHV LANA DNA-binding disruption – biochemical, fluorescence polarization, cherry-picked samples, dose response (AID 504725); parameters: species or system Human gammaherpesvirus 8;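 further: fluorescence polarization of a labeled DNA duplex reporting LANA DNA binding; potency is for inhibitors that block LANA binding to the DNA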
# Bcl-2-like protein 1 = Bcl-2-like protein 1 (Homo sapiens, UniProt Q07817); experiment: blockers of BCLXL peptide binding – biochemical, fluorescence polarization, 1536-well, selectivity assay for MCL1 inhibitor project, dose response (AID 2218)
# [8] = biological target: Beta-adrenergic receptor kinase 1 (Homo sapiens, UniProt P25098); experiment: aptamer displacement from bead-bound GRK2 – biochemical, cherry pick 1, bead flow cytometry, dose response (AID 504500)
# [9] = biological target: Induced myeloid leukemia cell differentiation protein Mcl-1 (Homo sapiens, UniProt Q07820); experiment: blockers of MCL1 binding to BIM peptide – biochemical, fluorescence polarization, BIM-BH3 peptide, 1536-well, dose response (AID 2217)
# [10] = biological target: DNA (cytosine-5)-methyltransferase 1 (Homo sapiens, UniProt P26358); experiment: inhibition of DNA methylation by DNMT1 – biochemical, fluorescent molecular beacon, confirmation (AID 602386); format: functional
# [11] = biological target: T9, Endoribonuclease toxin MazF (Escherichia coli K-12, UniProt P0AE70); experiment: MazEF toxin-antitoxin RNase activation – biochemical, fluorescence, single-stranded RNA substrate, SAR follow-up (AID 588603); format: functional
# T9 sequence (P0AE70 whole entry): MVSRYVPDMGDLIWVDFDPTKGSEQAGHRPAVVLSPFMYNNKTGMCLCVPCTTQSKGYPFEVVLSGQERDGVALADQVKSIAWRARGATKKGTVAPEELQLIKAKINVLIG
# [12] = biological target: T9, Endoribonuclease toxin MazF; experiment: substrate-only fluorescence increase artefacts – biochemical, single-stranded RNase substrate, counter-screen for MazEF activator project, dose response (AID 588502); format: functional
# [13] = biological target: T9, Endoribonuclease toxin MazF; experiment: activation of MazEF endoribonuclease cleavage – biochemical, fluorescence, single-stranded RNA substrate, uHTS hits, dose response (AID 588481); format: functional
# [14] = biological target: T9, Endoribonuclease toxin MazF; experiment: SAR analysis of small molecule activators of the MazEF TA System via a fluorescence-based single-stranded RNase assay counterscreen. [Related pubchem assays (depositor defined):AID504720, AID504743]; format: functional
# MEF = experiment: SAR analysis of small molecule cytotoxicity of MazEF TA System activators in embryonic fibroblast (MEF) cells. [Related pubchem assays (depositor defined):AID504720, AID504743]; format: functional; details: Mus musculus
# T6 sequence (P63165 whole entry, the tested form may be a part): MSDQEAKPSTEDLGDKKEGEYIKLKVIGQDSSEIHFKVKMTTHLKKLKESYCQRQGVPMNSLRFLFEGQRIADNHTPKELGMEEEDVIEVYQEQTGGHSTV
# Induced myeloid leukemia cell differentiation protein Mcl-1, sequence (Q07820 whole entry): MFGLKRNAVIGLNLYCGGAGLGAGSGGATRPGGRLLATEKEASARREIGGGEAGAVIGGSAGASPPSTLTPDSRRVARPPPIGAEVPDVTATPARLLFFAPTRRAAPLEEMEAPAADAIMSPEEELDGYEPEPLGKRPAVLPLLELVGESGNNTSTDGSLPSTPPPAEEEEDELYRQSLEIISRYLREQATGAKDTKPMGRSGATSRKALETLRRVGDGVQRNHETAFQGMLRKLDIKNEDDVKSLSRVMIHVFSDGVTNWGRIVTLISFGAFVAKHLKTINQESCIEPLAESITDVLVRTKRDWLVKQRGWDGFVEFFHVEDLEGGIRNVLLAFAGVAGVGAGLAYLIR
# Protein S100-A4, sequence (P26447 whole entry): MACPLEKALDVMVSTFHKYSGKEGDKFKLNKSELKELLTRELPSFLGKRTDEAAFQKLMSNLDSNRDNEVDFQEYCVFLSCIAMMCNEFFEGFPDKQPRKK
# ORF 73, sequence (O40947 whole entry): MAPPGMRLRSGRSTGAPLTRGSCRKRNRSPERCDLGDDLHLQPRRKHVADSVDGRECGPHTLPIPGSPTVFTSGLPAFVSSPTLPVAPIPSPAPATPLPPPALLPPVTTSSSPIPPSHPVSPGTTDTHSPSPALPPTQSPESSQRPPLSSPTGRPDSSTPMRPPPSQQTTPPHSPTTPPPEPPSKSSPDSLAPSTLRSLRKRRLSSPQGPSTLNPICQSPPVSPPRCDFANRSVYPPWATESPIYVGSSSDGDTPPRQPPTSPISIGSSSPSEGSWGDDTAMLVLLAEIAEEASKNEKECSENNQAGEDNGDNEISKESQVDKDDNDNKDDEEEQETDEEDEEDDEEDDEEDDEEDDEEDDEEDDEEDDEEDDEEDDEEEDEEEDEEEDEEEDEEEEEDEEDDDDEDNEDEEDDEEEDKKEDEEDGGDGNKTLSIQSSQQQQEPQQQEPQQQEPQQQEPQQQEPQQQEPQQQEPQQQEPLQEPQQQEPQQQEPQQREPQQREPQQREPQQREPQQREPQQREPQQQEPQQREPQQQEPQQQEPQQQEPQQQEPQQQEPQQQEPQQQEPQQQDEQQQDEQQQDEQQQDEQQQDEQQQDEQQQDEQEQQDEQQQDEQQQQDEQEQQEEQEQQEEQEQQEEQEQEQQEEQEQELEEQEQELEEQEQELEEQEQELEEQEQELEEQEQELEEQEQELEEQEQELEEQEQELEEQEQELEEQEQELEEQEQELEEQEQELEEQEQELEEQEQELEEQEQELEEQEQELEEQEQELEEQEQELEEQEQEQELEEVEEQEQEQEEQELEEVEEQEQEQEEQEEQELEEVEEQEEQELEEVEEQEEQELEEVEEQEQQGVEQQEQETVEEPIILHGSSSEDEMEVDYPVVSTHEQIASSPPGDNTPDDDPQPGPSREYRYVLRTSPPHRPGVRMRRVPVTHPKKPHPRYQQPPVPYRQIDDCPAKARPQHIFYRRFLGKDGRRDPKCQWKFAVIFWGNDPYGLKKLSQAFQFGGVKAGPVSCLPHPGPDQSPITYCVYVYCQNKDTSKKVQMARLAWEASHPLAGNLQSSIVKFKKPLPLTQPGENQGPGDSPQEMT
# Beta-adrenergic receptor kinase 1, sequence (P25098 whole entry): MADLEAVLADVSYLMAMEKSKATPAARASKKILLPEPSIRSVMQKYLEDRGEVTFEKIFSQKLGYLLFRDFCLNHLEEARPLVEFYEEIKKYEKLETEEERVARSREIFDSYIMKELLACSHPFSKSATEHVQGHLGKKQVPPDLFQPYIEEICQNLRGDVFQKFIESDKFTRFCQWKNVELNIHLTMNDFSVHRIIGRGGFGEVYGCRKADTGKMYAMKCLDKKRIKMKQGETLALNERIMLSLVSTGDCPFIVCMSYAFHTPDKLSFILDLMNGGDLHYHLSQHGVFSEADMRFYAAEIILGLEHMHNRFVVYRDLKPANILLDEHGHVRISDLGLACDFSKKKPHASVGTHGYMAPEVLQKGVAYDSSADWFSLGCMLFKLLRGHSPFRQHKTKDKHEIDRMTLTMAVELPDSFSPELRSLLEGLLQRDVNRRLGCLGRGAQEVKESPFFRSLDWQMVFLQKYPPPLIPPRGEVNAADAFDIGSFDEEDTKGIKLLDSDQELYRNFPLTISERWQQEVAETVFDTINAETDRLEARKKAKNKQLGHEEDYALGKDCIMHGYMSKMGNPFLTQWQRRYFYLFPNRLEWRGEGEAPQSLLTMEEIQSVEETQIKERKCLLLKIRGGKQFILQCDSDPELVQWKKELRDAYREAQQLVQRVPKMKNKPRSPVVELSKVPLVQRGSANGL
# Bcl-2-like protein 1, sequence (Q07817 whole entry): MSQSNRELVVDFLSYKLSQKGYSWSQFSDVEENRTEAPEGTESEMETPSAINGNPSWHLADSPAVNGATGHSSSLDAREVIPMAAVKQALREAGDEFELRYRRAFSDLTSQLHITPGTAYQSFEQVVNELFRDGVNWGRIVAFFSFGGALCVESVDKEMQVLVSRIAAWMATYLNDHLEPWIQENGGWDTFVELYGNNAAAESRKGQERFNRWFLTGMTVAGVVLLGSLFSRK
# DNA (cytosine-5)-methyltransferase 1, sequence (P26358 whole entry): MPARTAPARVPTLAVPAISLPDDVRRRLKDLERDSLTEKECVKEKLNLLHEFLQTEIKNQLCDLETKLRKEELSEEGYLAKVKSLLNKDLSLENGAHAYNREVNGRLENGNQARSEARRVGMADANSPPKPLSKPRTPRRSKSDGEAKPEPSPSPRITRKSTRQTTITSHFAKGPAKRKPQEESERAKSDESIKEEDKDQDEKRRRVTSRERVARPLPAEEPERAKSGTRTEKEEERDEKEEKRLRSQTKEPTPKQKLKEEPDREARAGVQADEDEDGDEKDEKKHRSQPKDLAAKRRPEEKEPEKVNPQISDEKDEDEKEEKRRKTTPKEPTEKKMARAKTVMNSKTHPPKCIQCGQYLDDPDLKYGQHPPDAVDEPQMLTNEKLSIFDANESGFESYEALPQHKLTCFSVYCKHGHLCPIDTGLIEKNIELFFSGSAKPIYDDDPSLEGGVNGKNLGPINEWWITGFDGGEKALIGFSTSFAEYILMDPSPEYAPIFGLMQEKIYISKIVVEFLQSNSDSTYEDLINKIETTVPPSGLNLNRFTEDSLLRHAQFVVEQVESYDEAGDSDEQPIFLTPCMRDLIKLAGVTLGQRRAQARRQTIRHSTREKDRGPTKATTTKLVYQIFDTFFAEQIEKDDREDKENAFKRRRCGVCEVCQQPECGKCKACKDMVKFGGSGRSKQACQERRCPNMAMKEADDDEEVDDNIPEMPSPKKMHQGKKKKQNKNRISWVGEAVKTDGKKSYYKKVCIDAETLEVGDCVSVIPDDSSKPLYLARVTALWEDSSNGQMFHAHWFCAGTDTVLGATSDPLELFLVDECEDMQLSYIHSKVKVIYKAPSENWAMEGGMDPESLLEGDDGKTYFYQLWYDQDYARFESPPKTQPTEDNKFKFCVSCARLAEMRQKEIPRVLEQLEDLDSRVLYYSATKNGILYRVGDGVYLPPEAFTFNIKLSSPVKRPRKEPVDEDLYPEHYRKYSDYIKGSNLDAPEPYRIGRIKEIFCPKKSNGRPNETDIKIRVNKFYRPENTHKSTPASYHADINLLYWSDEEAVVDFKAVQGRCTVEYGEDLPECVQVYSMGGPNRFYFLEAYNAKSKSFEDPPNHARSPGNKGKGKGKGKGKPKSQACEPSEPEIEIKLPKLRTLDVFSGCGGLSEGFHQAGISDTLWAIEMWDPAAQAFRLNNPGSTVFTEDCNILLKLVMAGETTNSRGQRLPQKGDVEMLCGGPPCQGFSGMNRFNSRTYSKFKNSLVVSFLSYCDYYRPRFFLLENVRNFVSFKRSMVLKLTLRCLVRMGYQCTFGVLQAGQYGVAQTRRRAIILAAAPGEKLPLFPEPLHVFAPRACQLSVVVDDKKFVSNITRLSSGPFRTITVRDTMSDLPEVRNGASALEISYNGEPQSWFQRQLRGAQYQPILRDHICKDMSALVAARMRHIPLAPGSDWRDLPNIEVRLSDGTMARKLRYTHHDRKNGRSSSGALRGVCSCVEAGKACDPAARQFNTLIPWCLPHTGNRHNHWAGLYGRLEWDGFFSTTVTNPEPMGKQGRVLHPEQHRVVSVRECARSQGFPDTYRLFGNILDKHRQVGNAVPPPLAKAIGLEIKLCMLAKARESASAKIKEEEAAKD
smiles,measurement,setting,value
CCC(CNc1cc(OC)cc2cccnc12)NC1CCCCC1 (centres undefined),AC50,[1],> 380 µM (inactive)
same,AC50,Caspase-6,39 µM (active)
same,AC50,Protein S100-A4,5.07 µM (active)
same,EC50,Protein RecA,1.95 µM (active)
same,CC50,Vero,> 40 µM (active)
same,EC50,[2],> 195 µM (not active)
same,IC50,[3],113 µM (inactive)
same,IC50,Genome polyprotein,39.2 µM (active)
same,AC50,INS1,7.62 µM (active)
O=C(O)c1ccc(-n2cccc2/C=C2/SC(=O)N(CC(=O)N3CCCC3)C2=O)cc1,AC50,HeLa,44.7 µM (active)
same,IC50,[4],6.13 µM (active)
same,EC50,[5],89 µM (active)
same,EC50,[6],78.2 µM (active)
same,IC50,[7],> 66.6 µM (inactive)
same,AC50,ORF 73,30.3 µM (active)
same,IC50,Bcl-2-like protein 1,104 µM (not active)
same,EC50,[8],33 µM (inactive)
same,IC50,[9],15.9 µM (not active)
same,IC50,[10],3.5 µM (active)
Cc1ccc(C(=O)Oc2cc(N)n(S(=O)(=O)c3ccc(F)cc3)n2)cc1,EC50,[11],> 99 µM (inactive)
same,EC50,[12],4.1 µM (active)
same,EC50,[13],5.26 µM (active)
same,EC50,[14],> 99 µM (inactive)
same,CC50,MEF,> 99 µM (inactive)
